The values below come from PubChem BioAssay (NCI).

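Values below derive from 48-hour exposures of cells grown in 96-well plates, with endpoints linearly interpolated between the two concentrations bracketing the appropriate inhibition level. Abbreviation: GI50, concentration required for 50% inhibition of growth. The concentration for full growth arrest is given as TGI.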 Bounds are passed on as bounds.

One experiment relates to COLO 205 colon. Nature of the experiment: DTP human tumour cell line panel, 48 h.
In turn, `O=C1C=C(Cl)C(=O)C(c2ccc(Cl)cc2)=C1` gave a TGI of 31 µM.

`O=C1C2C(C(=O)N1OS(=O)(=O)c1ccccc1)N(Cc1ccccc1)C(=O)N2Cc1ccccc1` (stereo not given) gave a concentration for total growth inhibition (TGI) of over 100 µM.

Regarding `COc1cc(-c2nn(-c3ccc(NC(=O)c4ccc(Cl)c(C(F)(F)F)c4)cc3)cc2-c2ccncc2)ccc1Cl`, the GI50 is 2.05 µM and the TGI came to 4.37 µM.

In the case of `O=C(Nc1ccccc1OC(F)(F)F)Nc1n[nH]c2ccccc12`, the GI50 is 71.8 µM and the concentration for total growth inhibition (TGI) was over 100 µM.

For the molecule `O=C(/C=C/C12c3ccccc3C(c3ccccc31)C1C(=O)NC(=O)C12)c1ccncc1` (stereo not given), the GI50 was 3.57 µM and the TGI is 9.43 µM.

For `O=C1C(=O)N(c2ccc(Cl)cc2Cl)C(=O)C(=O)C1c1nc2ccccc2s1`, the TGI is over 100 µM.

Molecule `O=CN/C=C/c1cc(O)ccc1O` returned a TGI of 26.5 µM.

Take `Cn1cc(C2=C(c3cn(C)c4ncccc34)C(=O)NC2=O)c2ccccc21`: the GI50 is 5.23 µM and the TGI turned out to be 13 µM.

As to `O=C1/C(=C/c2cccc([N+](=O)[O-])c2)COc2ccc(O)cc21`, the GI50 is 1.58 µM and the TGI came out at 3.27 µM.

In the case of `Clc1ccc2c(NCCCCNc3nc(N4CCCCC4)nc4ccccc34)ccnc2c1`, the GI50 is 1.64 µM and the total growth inhibition concentration (TGI) amounted to 3.59 µM.

Take `COc1cc(/C=N/NC(=O)c2ccc(C(F)(F)F)nc2Nc2ccc(Cl)cc2C)ccc1O`: the GI50 is 3.25 µM and the TGI turned out to be 10.4 µM.

`O=C1CC(c2ccc3c(c2)OCO3)Nc2ccccc21` (stereo not given): the GI50 was 16.5 µM and the TGI was determined as 37.2 µM.

For `O=C1C(Cl)=C(Nc2cccc(Cl)c2)C(=O)N1Cc1ccc(Cl)cc1Cl`, the GI50 was 1 µM and the total growth inhibition concentration (TGI) was found to be 16 µM.

Another experiment deals with HOP-92 NSCLC. Nature of the experiment: DTP human tumour cell line panel, 48 h.
For `O=C1C=C(Cl)C(=O)C(c2ccc(Cl)cc2)=C1`, the TGI was 35.7 µM.

Molecule `O=C1C2C(C(=O)N1OS(=O)(=O)c1ccccc1)N(Cc1ccccc1)C(=O)N2Cc1ccccc1` (stereo not given) gave a concentration for total growth inhibition (TGI) of over 100 µM.

Regarding `COc1cc(-c2nn(-c3ccc(NC(=O)c4ccc(Cl)c(C(F)(F)F)c4)cc3)cc2-c2ccncc2)ccc1Cl`, the GI50 was 2.58 µM and the TGI is 8.81 µM.

Turning to `O=C(Nc1ccccc1OC(F)(F)F)Nc1n[nH]c2ccccc12`, the GI50 was 12.9 µM and the TGI was found to be 83.2 µM.

Turning to `O=C(/C=C/C12c3ccccc3C(c3ccccc31)C1C(=O)NC(=O)C12)c1ccncc1` (stereo not given), the GI50 is 1.94 µM and the TGI is 6.27 µM.

Molecule `O=C1C(=O)N(c2ccc(Cl)cc2Cl)C(=O)C(=O)C1c1nc2ccccc2s1` showed a total growth inhibition concentration (TGI) of over 100 µM.

In turn, `O=CN/C=C/c1cc(O)ccc1O` had a TGI of 25.6 µM.

For `Cn1cc(C2=C(c3cn(C)c4ncccc34)C(=O)NC2=O)c2ccccc21`, the GI50 was 7.71 µM and the TGI was over 22.9 µM.

Regarding `O=C1/C(=C/c2cccc([N+](=O)[O-])c2)COc2ccc(O)cc21`, the GI50 is 2.51 µM and the TGI came to 7.89 µM.

Turning to `Clc1ccc2c(NCCCCNc3nc(N4CCCCC4)nc4ccccc34)ccnc2c1`, the GI50 is 1.56 µM and the total growth inhibition concentration (TGI) is 3.39 µM.

As for `COc1cc(/C=N/NC(=O)c2ccc(C(F)(F)F)nc2Nc2ccc(Cl)cc2C)ccc1O`, the GI50 was 1.59 µM and the TGI is 7.58 µM.

Turning to `O=C1CC(c2ccc3c(c2)OCO3)Nc2ccccc21` (stereo not given), the GI50 was 4.96 µM and the TGI is 32.3 µM.

With `O=C1C(Cl)=C(Nc2cccc(Cl)c2)C(=O)N1Cc1ccc(Cl)cc1Cl`, the GI50 was 2.55 µM and the concentration for total growth inhibition (TGI) is 20.9 µM.

The test system of the next experiment is LOX IMVI melanoma. The experiment is described as follows: DTP human tumour cell line panel, 48 h.
For the molecule `O=C1C=C(Cl)C(=O)C(c2ccc(Cl)cc2)=C1`, the total growth inhibition concentration (TGI) came to 35.7 µM.

Take `O=C1C2C(C(=O)N1OS(=O)(=O)c1ccccc1)N(Cc1ccccc1)C(=O)N2Cc1ccccc1` (stereo not given): the TGI is over 100 µM.

Consider `COc1cc(-c2nn(-c3ccc(NC(=O)c4ccc(Cl)c(C(F)(F)F)c4)cc3)cc2-c2ccncc2)ccc1Cl`, for which the GI50 is 1.55 µM and the concentration for total growth inhibition (TGI) stood at 3.88 µM.

Regarding `O=C(Nc1ccccc1OC(F)(F)F)Nc1n[nH]c2ccccc12`, the GI50 was 22.5 µM and the TGI is over 100 µM.

As for `O=C(/C=C/C12c3ccccc3C(c3ccccc31)C1C(=O)NC(=O)C12)c1ccncc1` (stereo not given), the GI50 was 1.68 µM and the concentration for total growth inhibition (TGI) is 3.51 µM.

In turn, `O=C1C(=O)N(c2ccc(Cl)cc2Cl)C(=O)C(=O)C1c1nc2ccccc2s1` registered a TGI of over 100 µM.

Molecule `O=CN/C=C/c1cc(O)ccc1O` came in with a total growth inhibition concentration (TGI) of 28.1 µM.

For `Cn1cc(C2=C(c3cn(C)c4ncccc34)C(=O)NC2=O)c2ccccc21`, the GI50 is 6.97 µM and the TGI was over 25 µM.

On to `O=C1/C(=C/c2cccc([N+](=O)[O-])c2)COc2ccc(O)cc21`, for which the GI50 is 1.49 µM and the concentration for total growth inhibition (TGI) is 2.92 µM.

Consider `Clc1ccc2c(NCCCCNc3nc(N4CCCCC4)nc4ccccc34)ccnc2c1`, for which the GI50 is 1.5 µM and the TGI was found to be 3.14 µM.

Regarding `COc1cc(/C=N/NC(=O)c2ccc(C(F)(F)F)nc2Nc2ccc(Cl)cc2C)ccc1O`, the GI50 was 1.36 µM and the concentration for total growth inhibition (TGI) amounted to 11.5 µM.

Turning to `O=C1CC(c2ccc3c(c2)OCO3)Nc2ccccc21` (stereo not given), the GI50 was 5.91 µM and the concentration for total growth inhibition (TGI) stood at 20.5 µM.

Take `O=C1C(Cl)=C(Nc2cccc(Cl)c2)C(=O)N1Cc1ccc(Cl)cc1Cl`: the GI50 was under 0.0316 µM and the TGI is 11.5 µM.

A further experiment has as its system OVCAR-3 ovarian. The experiment is described as follows: DTP human tumour cell line panel, 48 h.
As for `O=C1C=C(Cl)C(=O)C(c2ccc(Cl)cc2)=C1`, the total growth inhibition concentration (TGI) is 34.3 µM.

In turn, `O=C1C2C(C(=O)N1OS(=O)(=O)c1ccccc1)N(Cc1ccccc1)C(=O)N2Cc1ccccc1` (stereo not given) came in with a total growth inhibition concentration (TGI) of over 100 µM.

As for `COc1cc(-c2nn(-c3ccc(NC(=O)c4ccc(Cl)c(C(F)(F)F)c4)cc3)cc2-c2ccncc2)ccc1Cl`, the GI50 was 2.98 µM and the TGI is over 30.9 µM.

Regarding `O=C(Nc1ccccc1OC(F)(F)F)Nc1n[nH]c2ccccc12`, the GI50 was 90.8 µM and the TGI was over 100 µM.

Consider `O=C(/C=C/C12c3ccccc3C(c3ccccc31)C1C(=O)NC(=O)C12)c1ccncc1` (stereo not given), for which the GI50 was 2.34 µM and the TGI is 5.96 µM.

`O=C1C(=O)N(c2ccc(Cl)cc2Cl)C(=O)C(=O)C1c1nc2ccccc2s1` displayed a TGI of over 100 µM.

For `O=CN/C=C/c1cc(O)ccc1O`, the total growth inhibition concentration (TGI) was found to be 22.5 µM.

In the case of `Cn1cc(C2=C(c3cn(C)c4ncccc34)C(=O)NC2=O)c2ccccc21`, the GI50 was 9.93 µM and the concentration for total growth inhibition (TGI) is over 25 µM.

As for `O=C1/C(=C/c2cccc([N+](=O)[O-])c2)COc2ccc(O)cc21`, the GI50 was 1.71 µM and the total growth inhibition concentration (TGI) turned out to be 3.13 µM.

In the case of `Clc1ccc2c(NCCCCNc3nc(N4CCCCC4)nc4ccccc34)ccnc2c1`, the GI50 is 1.95 µM and the TGI was 4.89 µM.

With `COc1cc(/C=N/NC(=O)c2ccc(C(F)(F)F)nc2Nc2ccc(Cl)cc2C)ccc1O`, the GI50 is 1.74 µM and the total growth inhibition concentration (TGI) is 13 µM.

Turning to `O=C1CC(c2ccc3c(c2)OCO3)Nc2ccccc21` (stereo not given), the GI50 was 5.01 µM and the TGI is 21.3 µM.

In the case of `O=C1C(Cl)=C(Nc2cccc(Cl)c2)C(=O)N1Cc1ccc(Cl)cc1Cl`, the GI50 is 11.1 µM and the TGI amounted to 24.8 µM.

The next experiment deals with OVCAR-4 ovarian. The experiment is described as follows: DTP human tumour cell line panel, 48 h.
The molecule `O=C1C=C(Cl)C(=O)C(c2ccc(Cl)cc2)=C1` showed a concentration for total growth inhibition (TGI) of 51.6 µM.

The molecule `O=C1C2C(C(=O)N1OS(=O)(=O)c1ccccc1)N(Cc1ccccc1)C(=O)N2Cc1ccccc1` (stereo not given) showed a total growth inhibition concentration (TGI) of over 100 µM.

As to `COc1cc(-c2nn(-c3ccc(NC(=O)c4ccc(Cl)c(C(F)(F)F)c4)cc3)cc2-c2ccncc2)ccc1Cl`, the GI50 was 5.05 µM and the TGI was over 100 µM.

For `O=C(Nc1ccccc1OC(F)(F)F)Nc1n[nH]c2ccccc12`, the GI50 is 37.7 µM and the TGI is over 100 µM.

Turning to `O=C(/C=C/C12c3ccccc3C(c3ccccc31)C1C(=O)NC(=O)C12)c1ccncc1` (stereo not given), the GI50 is 2.65 µM and the TGI is 9.7 µM.

The molecule `O=C1C(=O)N(c2ccc(Cl)cc2Cl)C(=O)C(=O)C1c1nc2ccccc2s1` came in with a TGI of over 100 µM.

Turning to `O=CN/C=C/c1cc(O)ccc1O`, the TGI came to 32.2 µM.

`Cn1cc(C2=C(c3cn(C)c4ncccc34)C(=O)NC2=O)c2ccccc21`: the GI50 was 17.8 µM and the TGI was over 25 µM.

Consider `O=C1/C(=C/c2cccc([N+](=O)[O-])c2)COc2ccc(O)cc21`, for which the GI50 was 3.3 µM and the TGI turned out to be 11.1 µM.

As to `Clc1ccc2c(NCCCCNc3nc(N4CCCCC4)nc4ccccc34)ccnc2c1`, the GI50 is 1.59 µM and the total growth inhibition concentration (TGI) amounted to 5.24 µM.

Consider `COc1cc(/C=N/NC(=O)c2ccc(C(F)(F)F)nc2Nc2ccc(Cl)cc2C)ccc1O`, for which the GI50 was 1.54 µM and the concentration for total growth inhibition (TGI) worked out at 17 µM.

On to `O=C1CC(c2ccc3c(c2)OCO3)Nc2ccccc21` (stereo not given), for which the GI50 is 12.2 µM and the concentration for total growth inhibition (TGI) is 56.7 µM.

Take `O=C1C(Cl)=C(Nc2cccc(Cl)c2)C(=O)N1Cc1ccc(Cl)cc1Cl`: the GI50 was 0.508 µM and the TGI was found to be 7.41 µM.
